Experimental data taken from patent US6194169A, “Enhanced expression of human platelet-derived growth factor in Pichia pastoris” (The University of Kentucky Research Foundation, priority 1998, dated 2001).

Columns and labels:
[1] = test system: human glioblastoma (U87) cells; assay: Tumor growth of stably transfected U87 cells in athymic nude mice; type: in vivo; settings: 10^7 transfected U87 cells s.c. in athymic nude mice
Method: Transfections and stable expression in the human glioblastoma cell line U87 were performed using a liposomal reagent (Lipofectin™) (Gibco/BRL; Gaithersburg, Md.), as described. Cells were cultured in 162 cm^2 flasks in complete DMEM. On the day of injection, cells were removed by trypsinization, rinsed twice with Hanks balanced salt solution (HBSS, without phenol red; Gibco/BRL), and resuspended in 300 μL HBSS. Cells (10^7) from exponentially growing cultures of stable U87 transfectants were injected subcutaneously between the scapulae of 9-week-old athymic nude mice (Harlan Sprague-Dawley, nu/nu) using a 1 cc tuberculin syringe equipped with a 23-gauge needle. Two-dimensional measurements of tumors were obtained with vernier calipers.

[2] = PDGF-BB expressed in Saccharomyces cerevisiae, Craig et al. (1992); cited from earlier work
[3] = Heparin-agarose in vitro batch binding assay; settings: 200 mM NaCl, 40 mM Hepes pH 7.4; 3 μg protein; bound fraction by ELISA
Method: Mixtures containing 300 μL of a 50:50 slurry of heparin-agarose in 200 mM NaCl, 40 mM Hepes, pH 7.4 were incubated with 3 μg of PDGF-BB proteins for 15 min at 23° C. Supernatants were obtained by microcentrifugation and collected with a 23 G needle. Pellets were washed with 300 μL of buffer, which was combined with the first supernatant ("unbound" PDGF). Pellets were then washed twice with 150 μL of buffer containing 1 M NaCl, and supernatants were pooled (high salt wash fraction, or "bound" PDGF). PDGF-BB content of bound and unbound fractions were determined by ELISA.

[4] = test system: PDGF α-receptor; assay: Radioreceptor assay (RRA), competition with [125I]PDGF-BB in A204 cells; type: binding; settings: A204 cells (α isotype only); [125I]PDGF-BB radioligand; Pichia-expressed protein; ALLFIT fit
Method: (§1) Radioreceptor assays were conducted in A204 and rat mesangial cells (RMC, R52 line) as described previously using 20,000 cpm of [^125 I]PDGF-BB (1200 Ci/mmol; Amersham, Buckinghamshire, England) as radioligand and unlabeled recombinant PDGF-BB proteins as competitor. Mitogenic activities of recombinant PDGF-BB proteins were determined by measuring [^3 H]thymidine incorporation into cells as described.

[5] = test system: PDGF β-receptor; assay: In vitro PDGF receptor autophosphorylation in R52 cells; type: cell-based, rat; settings: 170 kDa PDGF receptor species
Method: In vitro assays of PDGF receptor autophosphorylation were conducted essentially as described. A204 and R52 cells (obtained from the American Type Culture Collection (ATCC) were grown to near confluence on 100-mm plastic dishes and maintained in low mitogenicity medium for 24 h. Cells were pre-chilled at 4° C. for 60 min and then incubated with PDGF-BB preparations for 10 min at 4° C. Cell lysates were incubated with either anti-PDGFRα or anti-PDGFRβ IgG (Santa Cruz Biotechnologies) for 60 min at 4° C., centrifuged for 10 min and incubated in fresh tubes containing protein A-agarose (Sigma) for 60 min at 4° C. Kinase assays were performed in 25 μL kinase buffer (20 mM Tris HCl, 1 mM DTT, 10 mM MnCl2, pH 7.5) and 5 μCi [γ-^32 P] ATP (3000 Ci/mmol) for 10 min at 30° C. Immunoprecipitates were analyzed by SDS-PAGE (6% polyacrylamide).

[6] = test system: NR6 cells; assay: Mitogenesis, [3H]thymidine incorporation in NR6 cells; type: cell-based; settings: NR6 cells (primarily α-receptors), ALLFIT fit
Method: as §1

[7] = test system: PDGF β-receptor; assay: Radioreceptor assay (RRA), competition with [125I]PDGF-BB in R52 rat mesangial cells; type: binding; settings: R52 cells (β isotype); [125I]PDGF-BB radioligand; Pichia-expressed protein; ALLFIT fit
Method: as §1

[8] = test system: PDGF α-receptor; assay: In vitro PDGF receptor autophosphorylation in A204 cells; type: cell-based; settings: 170 kDa PDGF receptor species
Method: In vitro assays of PDGF receptor autophosphorylation were conducted essentially as described. […] ATP (3000 Ci/mmol) for 10 min at 30° C. Immunoprecipitates were analyzed by SDS-PAGE (6% polyacrylamide).

Substance | effect of overexpression on U87 tumor growth in vivo vs Neo controls (in words) [1] | Structure (%) Beta [2] [%] | Structure (%) Helix [2] [%] | Structure (%) Random [2] [%] | heparin-binding, protein in the bound fraction [3] [%] | RRA: IC50 α [4] [ng/mL] | induction of β-receptor autophosphorylation (in words) [5] | Mitogenesis ED50 [6] [ng/mL] | RRA: IC50 β [7] [ng/mL] | induction of α-receptor autophosphorylation (in words) [8]
A-WT-RKK: wild-type PDGF A-chain overexpressed from cDNA in stably transfected U87 cells | not significantly different | – | – | – | – | – | – | – | – | –
PDGF-BB: wild-type human PDGF-BB expressed in Saccharomyces cerevisiae, CD data as reported by Craig et al. (1992) | – | 51.0 | 4.0 | 45.0 | – | – | – | – | – | –
WT-RKK: human PDGF B-chain (PDGF-BB homodimer) with wild-type loop III residues Arg Lys Lys (RKK) | not significantly different | – | – | – | ~100 | 9.2 | dose-dependent autophosphorylation | 52 | 4.0 | dose-dependent autophosphorylation
